Data from patent US9629864B2 (priority 2013, dated 2017).

Tests used:
[1] = tested on: mouse model of acute hemolytic uremic syndrome (type 2 Shiga toxin); set-up: species or system mice; details: in vivo, 200 mg/kg
[2] = tested on: mouse model of acute hemolytic uremic syndrome (type 2 Shiga toxin); set-up: species or system mice; details: in vivo, 200 mg/kg; remark: listed apart in the source
[3] = tested on: mouse model of acute hemolytic uremic syndrome (type 2 Shiga toxin); set-up: species or system mice; details: in vivo, 200 mg/kg; remark: listed apart in the source
yeast-type fungi = details: cited from earlier work
Hela cells = details: 72 h

For O=C(O)[C@H]1O[C@@H](Oc2cc3oc(-c4ccccc4)cc(=O)c3c(O)c2O)[C@H](O)[C@@H](O)[C@@H]1O [baicalin], the “pathological changes of kidney” value [1] was “only a minor hemorrhage existed in the kidney tissue, and there was no significant difference compared with mice in normal group”, the “survival rates of mice” value [2] was “significantly increased” and the “content of blood urea nitrogen (BUN) in mouse serum, drug administration group vs normal control group” value [3] was “no significant difference”. For the same molecule, the “content of creatinine in mouse serum, drug administration group vs normal control group” value [3] was “no significant difference”, the “minimal inhibitory concentration (MIC)” value (yeast-type fungi) was 70 to 100 µg/mL and the “inhibition of cytotoxicity of Hela cells caused by type 2 Shiga toxin” value (Hela cells) was “significantly inhibited the cytotoxicity of Hela cells caused by type 2 Shiga toxin, in a dose-dependent manner”.
